For experiment [1], the system named is Candida albicans (strain CBS 562). Kind of experiment: adhesion inhibition of Candida albicans. The class given is cell-based. To be noted: CBS562. As to the method: Di-, tetra- and octavalent GINAc-linked “click” glycodendrimers as depicted herein-below were evaluated as adhesion inhibitors of Candida albicans (strain CBS 562) and compared to the free monosaccharide GlcNAc (N-acetyl glucosamine).

In experiment [2] the target is T1, human CD 69 receptor (Homo sapiens, UniProt Q07108).
T1 sequence (Q07108 1-199): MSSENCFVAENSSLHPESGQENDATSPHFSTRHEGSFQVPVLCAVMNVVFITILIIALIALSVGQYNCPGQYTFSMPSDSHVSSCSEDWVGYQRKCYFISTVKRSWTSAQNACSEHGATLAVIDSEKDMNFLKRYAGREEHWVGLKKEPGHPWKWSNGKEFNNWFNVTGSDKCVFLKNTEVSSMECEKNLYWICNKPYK
Kind of experiment: ELISA type assay, interaction with CD 69 receptor. It counts as binding. On the procedure: (§1) In addition, as a model for the interference with the natural killer cells of the immune system, the compounds were evaluated in an ELISA type assay for their interaction with the rat receptor NKRPI and the human CD 69 receptor.
For orientation: An ELISA detects its analyte on a solid surface through an enzyme-linked reagent.

Experiment [3] concerns the target T2, rat receptor NKRPI (Rattus norvegicus, UniProt P27471).
T2 sequence (P27471 1-223): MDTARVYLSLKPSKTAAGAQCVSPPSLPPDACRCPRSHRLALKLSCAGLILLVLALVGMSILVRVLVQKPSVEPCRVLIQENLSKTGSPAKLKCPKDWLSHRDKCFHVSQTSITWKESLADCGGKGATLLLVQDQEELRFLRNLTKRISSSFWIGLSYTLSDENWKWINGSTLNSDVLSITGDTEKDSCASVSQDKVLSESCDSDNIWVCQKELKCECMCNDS
In words: ELISA type assay, interaction with NKRPI receptor. The class given is binding. As to the method:
as §1

Regarding `CC(=O)N[C@H]1C(O)O[C@H](CO)[C@@H](O)[C@@H]1O` (some centres unmarked) [GlcNAc, N-acetyl glucosamine, reference compound], in experiment [1], the inhibition at 113 µM stood at 79%. Also, the IC50 in experiment [2] (read-out: −log IC50 (CD69) (converted)) is 5.01 µM; in experiment [3] (read-out: −log IC50 (NKRPI) (converted)) it was 1 µM.
`COC(=O)c1cc(OCCNC(=O)c2cc(OCc3cn(CCCOC4OC(CO)C(O)C(O)C4NC(C)=O)nn3)cc(OCc3cn(CCCOC4OC(CO)C(O)C(O)C4NC(C)=O)nn3)c2)cc(OCCNC(=O)c2cc(OCc3cn(CCCOC4OC(CO)C(O)C(O)C4NC(C)=O)nn3)cc(OCc3cn(CCCOC4OC(CO)C(O)C(O)C4NC(C)=O)nn3)c2)c1` (centres unmarked) [TETRA]: the “−log IC50 (CD69)” value in experiment [2] is recorded as 7.54. For the same compound, in experiment [3], the “−log IC50 (NKRPI)” value was 8.5.

In general, inhibition refers to how much of the control response was suppressed. As usually defined, the IC50 is the concentration that inhibits the measured activity by half.
